Results: US9521850B2 (University of Florida Research Foundation, Incorporated, priority 2012, dated 2016)
In brackets after ≈: the same amount, converted by molar mass.

How the values were obtained:
CLAS populations = experiment: Effect on CLAS populations, mean Ct by quantitative PCR (Example 2)
[1] = system: Agrobacterium tumefaciens; experiment: microbe, parasite or virus in culture; assay type: cell-based
Xanthomonas citri = experiment: microbe, parasite or virus in culture; assay type: cell-based, Xanthomonas citri subsp. citri
SecA of Ca. L. asiaticus = SecA of Ca. L. asiaticus (Candidatus Liberibacter asiaticus, UniProt A0ABM5NFG5); experiment: biochemical
CLAS = CLAS transmission rate using graft-based approach (Example 3); assay type: in vivo; conditions: budwood treated at 500 μg/ml, grafted onto Valencia trees
Procedure: HLB-infected budwoods were collected in HLB infected grove in teaching block at CREC. The presence of CLAS titers in budwood was confirmed by qPCR.
C16 and streptomycin were applied at the rate of 500 μg/ml; water-treated budwood was used as check. The budwoods were placed in a glass bottle containing either treatment or water as check. The glass bottles were kept in a ventilation hood with light on to increase the evaporation rate, therefore, promoting the uptake of antibiotics. Leaf and bark samples were collected from each budwood and 100 mg were accurately weighed and used for DNA extraction with Promega genomic DNA extraction kit. CLAS populations in each sample were determined using standard qPCR protocol. Each DNA sample was run in triplicate wells.
After overnight treatment, the antibiotic-treated budwood was grafted onto 2-3 years old Valencia trees. A total of 15 trees were grafted for each treatment. […] Four leaves from the main stem of Valencia trees were sampled for DNA extraction and determination of CLAS populations.

Sinorhizobium meliloti = experiment: microbe, parasite or virus in culture; assay type: cell-based
Bradyrhizobium japonicum = experiment: microbe, parasite or virus in culture; assay type: cell-based
Rhizobium etli = experiment: microbe, parasite or virus in culture; assay type: cell-based
Liberibacter crescens = experiment: microbe, parasite or virus in culture; assay type: cell-based
A. tumefaciens = experiment: microbe, parasite or virus in culture; assay type: cell-based; conditions: Agrobacterium tumefaciens, 24 h
Mesorhizobium loti = experiment: microbe, parasite or virus in culture; assay type: cell-based

CCc1nnc(NC(=O)c2cc3c([nH]c4ccccc43)c(C)n2)s1 [Compound C16, N-(5-ethyl-1,3,4-thiadiazol-2-yl)-1-methyl-9H-beta-carboline-3-carboxamide]
mean Ct value (CLAS populations) (CLAS populations; 2 days after treatment): 23.76 a | mean Ct value (CLAS populations) (CLAS populations; 4 days after treatment): 25.43 b | mean Ct value (CLAS populations) (CLAS populations; Before treatment): 22.71 a | CLAS population reduction as compared to water-treated control (CLAS populations; P<0.05, Fisher's LSD): significant effect | MBC [1]: 128 µg/mL (≈ 379 µM) | MIC [1]: 64 µg/mL (≈ 190 µM) | MBC (Xanthomonas citri): 32 µg/mL (≈ 94.8 µM) | MIC (Xanthomonas citri): 16 µg/mL (≈ 47.4 µM) | IC50 (SecA of Ca. L. asiaticus): 250 nM | inhibition of ATPase activity of SecA, in words (SecA of Ca. L. asiaticus): high activity | CLAS transmission rate (% trees tested positive for CLAS) (CLAS; 3 months after grafting): 6.7% | CLAS transmission rate (% trees tested positive for CLAS) (CLAS; 6 months after grafting): 80% | MBC (Sinorhizobium meliloti): 64 µg/mL (≈ 190 µM) | MIC (Sinorhizobium meliloti): 32 µg/mL (≈ 94.8 µM) | MBC (Bradyrhizobium japonicum; 24 hrs): 16 µg/mL (≈ 47.4 µM) | MIC (Bradyrhizobium japonicum; 24 hrs): 16 µg/mL (≈ 47.4 µM) | MBC (Bradyrhizobium japonicum; 120 hrs): 32 µg/mL (≈ 94.8 µM) | MIC (Bradyrhizobium japonicum; 120 hrs): 32 µg/mL (≈ 94.8 µM) | MBC (Rhizobium etli; 24 hrs): 16 µg/mL (≈ 47.4 µM) | MIC (Rhizobium etli; 24 hrs): 16 µg/mL (≈ 47.4 µM) | MBC (Rhizobium etli; 120 hrs): 32 µg/mL (≈ 94.8 µM) | MIC (Rhizobium etli; 120 hrs): 32 µg/mL (≈ 94.8 µM) | MBC (Liberibacter crescens; 24 h): 16 µg/mL (≈ 47.4 µM) | MIC (Liberibacter crescens; 24 h): 8 µg/mL (≈ 23.7 µM) | MBC (Liberibacter crescens; 120 h): 32 µg/mL (≈ 94.8 µM) | MIC (Liberibacter crescens; 120 h): 16 µg/mL (≈ 47.4 µM) | MBC (A. tumefaciens): 256 µg/mL (≈ 759 µM) | MBC (Mesorhizobium loti): 16 µg/mL (≈ 47.4 µM) | MIC (Mesorhizobium loti): 8 µg/mL (≈ 23.7 µM)
